Measurements: patent publication US20240116926A1, “HETEROAROMATIC COMPOUNDS” (AstraZeneca AB, priority 2022, published 2024)
Values after ≈ are worked out from the molar mass of the structure shown.

How the values were obtained:
[1] = tested on: MCF7-Luciferase cell line; assay: Control reporter (MCF7-Luciferase); format: cell-based; details: MCF7-Luciferase cells, luciferase activity after 24 hours
Experimental: (iii) Control Reporter (MCF7-Luciferase)
MCF7-Luciferase cell line was obtained from […] (catalog number SC050-L) and was maintained in DMEM containing 10% fetal calf serum, 2 mM glutamine. Cells were grown in a humidified incubator at 37° C. with 5% CO2. Cells were distributed to flat bottom white polystyrene TC treated 384 well plates at a density of 3,500 cells/well in 30 μL. Cells were incubated for 24 hours at 37° C. with 5% CO2. Cells were acoustically dosed using an Echo 555, with compounds serially diluted in 100% DMSO. Plates were incubated for an additional 24 hours. Cells were examined for luciferase activity through the addition of 30 μL Bright-Glo luciferase (Promega catalog number E2620). Plates were incubated for 10 minutes at room temperature and luminescence was read using Tecan plate reader. The data obtained with each compound was exported to […] software to perform curve fitting analysis.

TEAD4(217-434) = TEAD4(217-434) (Homo sapiens (Human), UniProt Q15561); assay: TEAD4 FRET; format: binding; details: depalmitoylated, biotinylated TEAD4(217-434), FAM labelled Probe A, 120 min at 25° C.
Chain of TEAD4(217-434) (Q15561 217-434): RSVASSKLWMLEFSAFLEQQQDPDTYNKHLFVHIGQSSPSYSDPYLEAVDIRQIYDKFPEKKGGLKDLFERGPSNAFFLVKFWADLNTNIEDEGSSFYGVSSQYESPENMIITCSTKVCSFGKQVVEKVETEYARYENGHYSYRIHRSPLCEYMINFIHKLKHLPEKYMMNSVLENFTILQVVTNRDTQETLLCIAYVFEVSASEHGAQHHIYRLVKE
Experimental: Compounds were dosed with a final DMSO concentration of 1% (v/v). Compound IC50 values were assessed following a 10-point, half-log10 dilution schema starting at 100 μM compound concentration. Specifically, human TEAD protein from TEAD4(217-434) was cloned into an overexpression vector, expressed as an N-terminal HIS-TEV-Avi-tagged fusion protein in E coli, and subsequently purified, then protein was chemically depalmitoylated & biotinylated. The assay was performed in 384-well LV plates (384-well black, medium binding, PS, HIBASE, GREINER #784076) and run in the presence and absence of the compound of interest. Each well of 5 μL assay mixture contained 10 mM Tris-HCl (pH 7.5), 100 mM NaCl, 0.05 mM EDTA, 1 mM TECP, 1% DMSO, 0.03% Pluronic acid F127, 20 nM dePal Avi TEAD4 (217-434)-depalmitoylated & biotinylated protein, 0.8 nM Streptavidin Terbium cryptate (CisBio #610SATLB), 625 nM FAM labelled Probe A. Reactions were incubated at 25° C. for 120 min before reading on a PHERASTAR FSX Plate Reader (337 520 490 HTRF module required) (Supplier BMP).
The data file from the PHERAstar FSX contains both the acceptor (520 nm) and donor channels (490 nm) (“Channel A”=acceptor channel (520 nm), “Channel B”=donor channel (490 nm)). The ratio of the donor and acceptor (Channel A/Channel B) is calculated within Genedata Assay Analyzer.
Probe A is 3′,6′-dihydroxy-3-oxo-N-{8-[2-(5-{2-[4-(trifluoromethyl)anilino]phenyl}-2H-tetrazol-2-yl)acetamido]octyl}-3H-spiro[[2]benzofuran-1,9′-xanthene]-5-carboxamide;

[2] = Solubility (thermodynamic, shake-flask); format: physicochemical; details: thermodynamic from solid; aqueous phosphate buffer (pH 7.4), 24 hours at 25° C.
Experimental: The thermodynamic solubility of a research compound is measured under standard conditions. It is a shake-flask approach that uses 10 mM DMSO solutions which are supplied from the Compound Managements liquid store and is a high throughput method. The dried compounds are equilibrated in an aqueous phosphate buffer (pH 7.4) for 24 hours at 25° C., the portion with the dissolved compound is then separated from the remains. The solutions are analyzed and quantified using UPLC/MS/MS, QC-samples are incorporated in each assay-run to ensure the quality of the assay.

[3] = Protein binding measurements in human plasma (Hu PPB); format: in vitro ADME; details: equilibrium dialysis for 18 hours, fraction unbound
Experimental: The automated equilibrium dialysis assay in human plasma uses the RED (Rapid Equilibrium Dialysis) Device and sample handling. The assay generally runs over two to three days including delivery of results. After dialysis for 18 hours, plasma and buffer samples are prepared for analysis by liquid chromatography and mass spectrometry. Samples are generally tested in singlicates and quantified by LC/MSMS by using a 7-point calibration curve in plasma. The compounds are pooled together in plasma pools up to 10 compounds. Three reference compounds are used in each run, Propranolol, Metoprolol and Warfarin. Warfarin is used as a control in each pool and Propranolol and Metoprolol are placed randomly in each run. An in-house Excel macro is used for preparation of files for the robot and the mass spectrometer and is also used for the calculations of fraction unbound (fu %) in plasma.

MCF7-Tead cell line = assay: TEAD reporter assay; format: cell-based; details: MCF7-Tead cells, luciferase activity after 24 hours
Experimental: MCF7-Tead cell line was obtained from BPS BIOSCIENCE (catalog number 60618) and was maintained in DMEM containing 10% fetal calf serum, 2 mM glutamine, and 400 μg/ml G418. Cells were grown in a humidified incubator at 37° C. with 5% CO2. Cells were distributed to flat bottom white polystyrene TC treated 384 well plates at a density of 3,500 cells/well in 30 uL. Cells were incubated for 24 hours at 37° C. with 5% CO2. Cells were acoustically dosed using an Echo 555, with compounds serially diluted in 100% DMSO. Plates were incubated for an additional 24 hours. Cells were examined for luciferase activity through the addition of 30 μL Bright-Glo luciferase (Promega catalog number E2620). Plates were incubated for 10 minutes at room temperature and luminescence was read using Tecan plate reader. The data obtained with each compound was exported to […] software to perform curve fitting analysis.

SMILES | IC50 [1] [nM] | IC50 (TEAD4(217-434)) [nM] | solubility at 24 h [2] [µM] | Hu PPB (% free) [3] [% free] | IC50 (MCF7-Tead cell line) [nM]
C=CC(=O)N1C[C@H](CO)[C@@H](Nc2nnc(-c3ccc(C(F)(F)F)cc3)c3ccccc23)C1 [Example 22, 1-((3S,4R)-3-(hydroxymethyl)-4-((4-(4-(trifluoromethyl)phenyl)phthalazin-1-yl)amino)pyrrolidin-1-yl)prop-2-en-1-one] | > 31700 | 950 | 65 (≈ 28.8 µg/mL) | 5.4 | 957
C=CC(=O)N1C[C@H](O)[C@H](Nc2nnc(-c3ccc(C(F)(F)F)cc3)c3ncccc23)C1 [Example 32, 1-((3S,4R)-3-hydroxy-4-((8-(4-(trifluoromethyl)phenyl)pyrido[2,3-d]pyridazin-5-yl)amino)pyrrolidin-1-yl)prop-2-en-1-one] | > 31700 | 42 | 52 (≈ 22.3 µg/mL) | 16.0 | 65
C=C(F)C(=O)N1C[C@H](F)[C@H](Nc2nnc(-c3ccc(C(F)(F)F)cc3)c3cccnc23)C1 [Example 6, 2-fluoro-1-((3S,4R)-3-fluoro-4-((5-(4-(trifluoromethyl)phenyl)pyrido[2,3-d]pyridazin-8-yl)amino)pyrrolidin-1-yl)prop-2-en-1-one] | 29900 | 78 | 158 (≈ 71 µg/mL) | 6.2 | 297
C=CC(=O)N1C[C@H](O)[C@H](Nc2nnc(-c3ccc(C(F)(F)F)cc3)c3cccc(F)c23)C1 [Example 14, 1-((3R,4S)-3-((8-fluoro-4-(4-(trifluoromethyl)phenyl)phthalazin-1-yl)amino)-4-hydroxypyrrolidin-1-yl)prop-2-en-1-one] | 19200 | 49 | 39 (≈ 17.4 µg/mL) | 7.7 | 26
C=C(F)C(=O)N1C[C@H](F)[C@H](Nc2nnc(-c3ccc(C(F)(F)F)cc3)c3ncccc23)C1 [Example 5, 2-fluoro-1-((3S,4R)-3-fluoro-4-((8-(4-(trifluoromethyl)phenyl)pyrido[2,3-d]pyridazin-5-yl)amino)pyrrolidin-1-yl)prop-2-en-1-one] | > 31700 | 27 | 244 (≈ 110 µg/mL) | 7.7 | 62
C=CC(=O)N1CC[C@H](Nc2nnc(-c3ccc(C(F)(F)F)cn3)c3ccccc23)C1 [Example 18, (S)-1-(3-((4-(5-(trifluoromethyl)pyridin-2-yl)phthalazin-1-yl)amino)pyrrolidin-1-yl)prop-2-en-1-one] | > 31700 | 200 | 47 (≈ 19.4 µg/mL) | 10.0 | 255
C=CC(=O)N1C[C@@H](CO)[C@H](Nc2ncc(-c3ccc(C(F)(F)F)cc3)c3nccnc23)C1 [Example 27, 1-((3R,4S)-3-(hydroxymethyl)-4-((8-(4-(trifluoromethyl)phenyl)pyrido[3,4-b]pyrazin-5-yl)amino)pyrrolidin-1-yl)prop-2-en-1-one] | > 31700 | 29 | 63 (≈ 27.9 µg/mL) | 6.0 | 23
C=CC(=O)N1C[C@H](CO)[C@H](Nc2nnc(-c3ccc(C(F)(F)F)cc3)c3ccccc23)C1 [Example 49, 1-((3S,4S)-3-(hydroxymethyl)-4-((4-(4-(trifluoromethyl)phenyl)phthalazin-1-yl)amino)pyrrolidin-1-yl)prop-2-en-1-one] | > 31700 | 59 | 165 (≈ 72.9 µg/mL) | 9.8 | 57
C=CC(=O)N1CC[C@H](Nc2nnc(-c3ccc(C(F)(F)F)cc3)c3ncccc23)C1 [Example 7, (S)-1-(3-((8-(4-(trifluoromethyl)phenyl)pyrido[2,3-d]pyridazin-5-yl)amino)pyrrolidin-1-yl)prop-2-en-1-one] | 28400 | 33 | 8.6 (≈ 3.56 µg/mL) | 9.0 | 81
C=CC(=O)N1C[C@@H](CO)[C@H](Nc2nnc(-c3ccc(C(F)(F)F)cc3)c3ncccc23)C1 [Example 25, 1-((3R,4S)-3-(hydroxymethyl)-4-((8-(4-(trifluoromethyl)phenyl)pyrido[2,3-d]pyridazin-5-yl)amino)pyrrolidin-1-yl)prop-2-en-1-one] | > 31700 | 57 | 32 (≈ 14.2 µg/mL) | 12.0 | 25
C=CC(=O)N1CC[C@H](Nc2nnc(-c3ccc(C(F)(F)F)cc3)c3ccccc23)C1 [Example 9, (S)-1-(3-((4-(4-(trifluoromethyl)phenyl)phthalazin-1-yl)amino)pyrrolidin-1-yl)prop-2-en-1-one] | > 31700 | – | < 0.8 | 4.7 | 60
CC#CC(=O)N1CC[C@H](Nc2nnc(-c3ccc(C(F)(F)F)cc3)c3ccccc23)C1 [Example 20, (S)-1-(3-((4-(4-(trifluoromethyl)phenyl)phthalazin-1-yl)amino)pyrrolidin-1-yl)but-2-yn-1-one] | 22500 | – | 33 (≈ 14 µg/mL) | 2.0 | 432
C=CC(=O)NC1(CNc2nnc(-c3ccc(C(F)(F)F)cc3)c3ccccc23)CC1 [Example 40, N-(1-(((4-(4-(trifluoromethyl)phenyl)phthalazin-1-yl)amino)methyl)cyclopropyl)acrylamide] | > 31700 | – | 3 (≈ 1.24 µg/mL) | 1.6 | 351
C=CC(=O)N1CC[C@H](Nc2ncc(-c3ccc(C(F)(F)F)cn3)c3ncccc23)C1 [Example 38, (S)-1-(3-((8-(5-(trifluoromethyl)pyridin-2-yl)-1,6-naphthyridin-5-yl)amino)pyrrolidin-1-yl)prop-2-en-1-one] | > 31700 | – | 191 (≈ 79 µg/mL) | 12.5 | 34
C=CC(=O)N1C[C@H](F)[C@H](Nc2nnc(-c3ccc(C(F)(F)F)cc3)c3ncccc23)C1 [Example 1, 1-((3S,4R)-3-fluoro-4-((8-(4-(trifluoromethyl)phenyl)pyrido[2,3-d]pyridazin-5-yl)amino)pyrrolidin-1-yl)prop-2-en-1-one] | 27300 | 93 | 209 (≈ 90.2 µg/mL) | – | 67
C=CC(=O)N1C[C@H](O)[C@H](Nc2nnc(-c3ccc(C(F)(F)F)cc3)c3ccccc23)C1 [Example 12, 1-((3S,4R)-3-hydroxy-4-((4-(4-(trifluoromethyl)phenyl)phthalazin-1-yl)amino)pyrrolidin-1-yl)prop-2-en-1-one] | 23500 | 52 | 370 (≈ 159 µg/mL) | – | 99
